This is an account of results in US20040229791A1, “Compositions and methods of modulating TGF-beta activity by fatty acids” (priority 2002, published 2004).

One assay deals with T1, 125I-TGF-β2-α2M* complex (Homo sapiens, UniProt P01023).
T1 construct: was purified from pooled citrate-treate human plasma; from tissue; host or cells: pooled citrate-treated human plasma
T1 sequence (P01023 24-1474): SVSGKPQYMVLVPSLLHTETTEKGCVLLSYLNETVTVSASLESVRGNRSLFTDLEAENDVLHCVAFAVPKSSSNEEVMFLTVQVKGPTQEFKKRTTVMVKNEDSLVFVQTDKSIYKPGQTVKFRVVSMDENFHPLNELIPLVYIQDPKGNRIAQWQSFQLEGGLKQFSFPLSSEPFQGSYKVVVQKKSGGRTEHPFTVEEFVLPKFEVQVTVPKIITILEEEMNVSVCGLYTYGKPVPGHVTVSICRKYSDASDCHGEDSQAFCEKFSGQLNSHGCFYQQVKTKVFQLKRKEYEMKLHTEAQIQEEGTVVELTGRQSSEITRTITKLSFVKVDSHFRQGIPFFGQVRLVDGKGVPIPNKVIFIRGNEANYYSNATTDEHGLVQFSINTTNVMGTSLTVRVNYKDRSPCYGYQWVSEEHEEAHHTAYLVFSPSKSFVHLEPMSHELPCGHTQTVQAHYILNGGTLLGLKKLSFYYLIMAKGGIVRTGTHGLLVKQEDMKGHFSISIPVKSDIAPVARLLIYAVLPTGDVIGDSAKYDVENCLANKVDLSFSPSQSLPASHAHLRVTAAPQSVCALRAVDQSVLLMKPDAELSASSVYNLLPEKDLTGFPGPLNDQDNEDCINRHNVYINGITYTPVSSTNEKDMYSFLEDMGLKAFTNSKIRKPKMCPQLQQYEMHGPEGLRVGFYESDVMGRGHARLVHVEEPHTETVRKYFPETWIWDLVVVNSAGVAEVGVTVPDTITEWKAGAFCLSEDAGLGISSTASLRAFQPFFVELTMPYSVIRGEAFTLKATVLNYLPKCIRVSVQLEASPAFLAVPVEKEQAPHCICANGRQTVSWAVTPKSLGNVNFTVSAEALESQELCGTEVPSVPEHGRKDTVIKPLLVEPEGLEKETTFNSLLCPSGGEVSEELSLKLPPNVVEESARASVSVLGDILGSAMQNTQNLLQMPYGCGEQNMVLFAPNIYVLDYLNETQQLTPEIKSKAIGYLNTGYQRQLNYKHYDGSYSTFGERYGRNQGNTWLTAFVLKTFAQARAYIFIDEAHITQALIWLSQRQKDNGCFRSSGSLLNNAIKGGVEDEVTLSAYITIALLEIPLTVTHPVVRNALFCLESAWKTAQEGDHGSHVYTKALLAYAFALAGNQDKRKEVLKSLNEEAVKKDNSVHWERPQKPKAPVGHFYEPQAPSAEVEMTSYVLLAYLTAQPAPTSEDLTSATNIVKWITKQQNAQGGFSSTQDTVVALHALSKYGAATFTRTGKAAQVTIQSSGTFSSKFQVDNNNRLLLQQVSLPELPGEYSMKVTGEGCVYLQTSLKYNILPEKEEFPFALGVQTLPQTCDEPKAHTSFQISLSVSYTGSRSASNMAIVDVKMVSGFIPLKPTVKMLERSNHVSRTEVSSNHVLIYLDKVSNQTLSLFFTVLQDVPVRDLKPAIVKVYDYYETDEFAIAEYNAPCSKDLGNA
Briefly: Dissociation of preformed 125I-TGF-β2-α2M* complex. It counts as binding. To be noted: at 250 μM.

The next assay addresses T2, 125I-TGF-β1-α2M* complex (Homo sapiens, UniProt P01023).
T2 construct: was purified from pooled citrate-treate human plasma; from tissue; host or cells: pooled citrate-treated human plasma
T2 sequence (P01023 24-1474): T1 sequence (P01023 24-1474)
Nature of the assay: Dissociation of preformed 125I-TGF-β1-α2M* complex. It counts as binding. To be noted: at 250 μM. How it is done:
To determine whether fatty acids are capable of dissociating TGF- ? - ? 2M* complexes, various concentrations of arachidonic acid were added to a reaction mixture containing ^125I-TGF- ? 1 or ^125I-TGF ? β3 and α2M* which had been preincubated at room temperature for 30 mi 30 minutes at room temperature, the ^125I-TGF ? β isoform-α2M* complexes in the reaction mixtures were analyzed by 5% non-denaturing PAGE. […] However, lower concentrations of arachidonic acid were effective in inhibiting complex formation of ^125I-TGF- ? 1 and α2M* than were required to dissociate the ^125I-TGF- ? 1- ? 2M* complex.

The next assay has as its target T3, TGF-β1-α2M* complex (Homo sapiens, UniProt P01023).
T3 construct: was purified from pooled citrate-treate human plasma; from tissue; host or cells: pooled citrate-treated human plasma
T3 sequence (P01023 24-1474): T1 sequence (P01023 24-1474)
Nature of the assay: Inhibition of 125I-TGF-β1 and α2M* complex formation (5% non-denaturing PAGE, autoradiography). It counts as binding. To be noted: for IC50: ~1 nM 125I-TGF-β1, 10 μg α2M* in 0.05 ml, 30 min room temperature, non-denaturing PAGE, read-out: IC50 for inhibiting complex formation between TGF-β1 and α2M*. How it is done: Saturated and unsaturated fatty acids are present in plasma and tissues (25,26). The effects of various concentrations of saturated fatty acids on the formation of complexes between ^125I-TGF ? β1 and ? 2M* were examined. ^125I-TGF- ? 1 (1 nM) was incubated μg/ml) in the presence of various concentrations of n-caprylic acid ([…]), lauric acid (12 carbon atoms), myristic acid (14 carbon atoms), palmitic acid (16 carbon atoms) and stearic acid (18 carbon atoms). After 30 min at room temperature, the reaction mixture was analyzed by 5% non-denaturing PAGE and autoradiography, a standard method form determining complex formation between TGF-β and α2M* (12). […] At 100 μM, it inhibited 20% of the complex formation between TGF ? β1 and α2M*. Esterification consistently abolished the inhibitory activities of the fatty acids.
Complex formation of ^125I-TGF-β and ? 2M*—The reaction mixture contained 10 μg of . α2M*, ˜1 nM of ^125I-TGF- ? 1, ^125I-TGF ? β2 or ^125I-TGF ? acids (dissolved in 100% ethanol) in 0.05 ml of 50 mM HEPES-NaOH buffer, pH 7.4. The final concentration of ethanol in the reaction mixture was 0.5%. These fatty acids and fatty acid derivatives were soluble under the experimental conditions. After 30 min at room temperature, the complex formation of ^125I-TGF- ? and. α2M* was determined by 5% non-denaturing polyacrylamide gel electrophoresis (PAGE) or by 7.5% SDS-PAGE following cross-linking by 0.6 mM DSS. After electrophoresis, the gel was stained with Coomassie blue and analyzed by autoradiography. The ^125I-TGF- ? - ? 2M* complex which co-migrated with free ? 2M* was quantified using a PhosphoImager (Fuji).

The next assay deals with T4, TGF-β3-α2M* complex (Homo sapiens, UniProt P01023).
T4 construct: was purified from pooled citrate-treate human plasma; from tissue; host or cells: pooled citrate-treated human plasma
T4 sequence (P01023 24-1474): T1 sequence (P01023 24-1474)
Nature of the assay: Inhibition of 125I-TGF-β3 and α2M* complex formation (5% non-denaturing PAGE). It counts as binding. The following applies: 30% inhibition. How it is done: (§1) TGF- ? isoforms bind to α2M* with different affinities: TGF ? β2>TGF ? β1 ( active sites of TGF ? β1 and TGF- ? 2 responsible for high-affinity binding to ? 2M* are disti from the low-affinity ? 2M* binding site in TGF- ? 3 (19). To determine if fatty acids differentially affect the binding of TGF- ? isoforms to ? 2M*, the effects of various concentrations of arachidonic acid and myristic acid on complex formation of ^125I-labeled TGF ? β isoforms and ? 2M were determined*. […] It inhibited 30% of the complex form . α2M* and TGF ? β2 and TGF ? β3 at 100 and >250 μM, respectively. Arachidon polyunsaturated fatty acid, was a stronger inhibitor of complex formation of ? 2M* and TGF-.β2/TGF ? β3. It inhibited 50% of the complex formation of ? 2M* and ^125I-TGF- ? 2 at 50 μM (FIG. 3A). The observation that myristic acid and arachidonic acid inhibited complex formation of ^125I-TGF- ? […] 2M* complexes in the reaction mixtures were then analyzed by 7.5% SDS-PAGE and autoradiography.
(§2) Complex formation of ^125I-TGF-β and ? […] After 30 min at room temperature, the complex formation of ^125I-TGF- ? and. α2M* was determined by 5% non-denaturing polyacrylamide gel electrophoresis (PAGE) or by 7.5% SDS-PAGE following cross-linking by 0.6 mM DSS. After electrophoresis, the gel was stained with Coomassie blue and analyzed by autoradiography. […] 2M* was quantified using a PhosphoImager (Fuji).

A further assay has as its target T5, TGF-β2-α2M* complex (Homo sapiens, UniProt P01023).
T5 construct: was purified from pooled citrate-treate human plasma; from tissue; host or cells: pooled citrate-treated human plasma
T5 sequence (P01023 24-1474): T1 sequence (P01023 24-1474)
Nature of the assay: Inhibition of 125I-TGF-β2 and α2M* complex formation (5% non-denaturing PAGE). It counts as binding. The following applies: 30% inhibition. How it is done: as §1, §2

The test system of the next assay is Mv1Lu cells. Briefly: [Methyl-3H]-thymidine incorporation assay, TGF-β2-induced growth inhibition. It counts as cell-based, mink. The following applies: 1 pM, absence of α2M*. An excerpt: The levels of TGF ? β and ? 2M* also increase dramatically. α2M* is capable of inhibiting TGF- ? activity by forming complexes with TGF- ? and thus preventing it from binding to TGF ? β receptors in cells involved. Fatty acids may potentiate TGF ? β activity by blocking complex formation of ? 2M* and TGF ? β under these conditions. To test this possibility, we determined the effects of arachidonic acid on ^125I-TGF- ? 2 binding (in the presence and absence of α2M*) to Mv1Lu cells. ? 2M* is known to inhibit TGF- ? 2 more strongly than TGF ? β1 binding to T receptors in cells (13). Various concentrations of ^125I-TGF- ? 2 were preincubated with 200 μg/ml of ? 2M* in the presence or absence of 30 μM arachidonic acid for 30 min prior to the performance of binding assays in Mv1Lu cells. […] The residual ^125I-TGF- ? binding associated with the cells after ? 2M* inhibition was mainly due to non-specific binding of ^125I-TGF- ? 2. […] In the presence of 200 μg/ml of ? 2M*, the dose-response curve of TGF ? β2 shifted to the right. […] Addition of arachidonic acid at 0.5 and 1 μM reversed the inhibitory effect of. α2M* on TGF- ? 2-induced growth inhibition as measured by [methyl-^3H]-thymidine incorporation.
[Methyl-^3H]-Thymidine Incorporation Assay—Mv1Lu cells were plated at a cell density of 7.5×10^4 cells/well in DMEM containing 0.1% fetal calf serum in 48-well cluster dishes. After 4 hr at 37° C. (to allow cell adherence), cells were treated with various concentrations of TGF- ? 2,2M* (0 or 200 μg/ml) and arachidonic acid ([…] or 1 μM). After 1h at 37° C., cells were pulsed with 1 μCi/ml [methyl-^3H]-thymidine for 2 hr. The [methyl-^3H]-th incorporation into cellular DNA was carried out in triplicate as described previously (23).
(Uptake of a labelled nucleoside into DNA is a usual measure of proliferation.)

As a reminder, the IC50 is the concentration that inhibits the measured activity by half. With `CCCCCCCCCCCCCC(=O)O` [myristic acid], the “dissociation of the 125I-TGF-β2-α2M* complex” value on 125I-TGF-β2-α2M* complex is “inactive”. The “dissociation of the 125I-TGF-β1-α2M* complex” value at 125I-TGF-β1-α2M* complex is “inactive”. At TGF-β1-α2M* complex, the IC50 stood at 9.1 µM. For the same molecule, the “concentration that inhibited 30% of the complex formation of α2M* and TGF-β3” value at TGF-β3-α2M* complex was over 250 µM. Besides, the “concentration that inhibited 30% of the complex formation of α2M* and TGF-β2” value on TGF-β2-α2M* complex was determined as 100 µM.
As for `CCCCCCCC/C=C\CCCCCCCC(=O)O` [oleic acid], the IC50 on TGF-β1-α2M* complex amounted to 5.2 ± 2 µM.
As to `CCCCCC/C=C\CCCCCCCC(=O)O` [palmitoleic acid], the “activity compared with saturated counterparts of identical chain length” value at TGF-β1-α2M* complex is recorded as “weaker than their saturated counterparts”.
With `CCCCC/C=C\C/C=C\C/C=C\C/C=C\CCCC(=O)OC` [arachidonic acid methyl ester], the “inhibitory activity on complex formation of 125I-TGF-β1 and α2M*” value at TGF-β1-α2M* complex is “inactive”.
For the molecule `CCCCCC=CCC=CCC=CCC#CCCCC(=O)O` [ETYA, 8, 11, 14 eicosatrien-5-ynoic acid], the half-maximal inhibitory concentration (IC50) at TGF-β1-α2M* complex worked out at 30 µM.
`CCCCC/C=C\C/C=C\C/C=C\CCCCC(=O)O` [γ-linolenic acid]: the IC50 at TGF-β1-α2M* complex amounted to 8 ± 2 µM.
As to `CCCCCCCCCCCC(=O)O` [lauric acid], the IC50 on TGF-β1-α2M* complex was found to be 68 µM.
On the same count and under the same terms, in the case of `CC/C=C\C/C=C\C/C=C\CCCCCCCC(=O)O` [linolenic acid] it was 26 ± 3.1 µM.
On to `CCCCCCCC(=O)O` [n-caprylic acid], for which, on TGF-β1-α2M* complex, the “inhibitory activity on complex formation of 125I-TGF-β1 and α2M*” value is recorded as “relatively weak inhibitor”. In addition, the “inhibition of the complex formation between TGF-β1 and α2M*” value at TGF-β1-α2M* complex (at 100 μM) turned out to be 20%.
On to `CCCCCCCCCCCCCCCCCC(=O)O` [stearic acid], for which the IC50 at TGF-β1-α2M* complex amounted to 6.6 ± 0.9 µM.
For `CCCCCCCCCCCCCCCC(=O)O` [palmitic acid], the IC50 on TGF-β1-α2M* complex was determined as 8.5 ± 1 µM.

B1: TGF-β2: transforming growth factor β isoform 2, 25-kDa dimeric protein (protein, UniProt P61812 303-414, looked up)
Transforming growth factor …: ALDAAYCFRNVQDNCCLRPLYIDFKRDLGWKWIHEPKGYNANFCAGACPYLWSSDTQHSRVLSLYNTINPEASASPCCVSQDLEPLTILYYIGKTPKIEQLSNMIVKSCKCS
On to B1, for which the “inhibition of [methyl-3H]-thymidine incorporation into DNA” value in the assay with Mv1Lu cells is recorded as “approximately 25%”.
